The record followed here is article PMC8739753 (ACS catalysis, 2021).

Series [1] has as its system TamI WT and mutants. Particulars: range over WT and all variants tested.
For series [2], the system named is vancomycin-resistant Enterococcus. The experiment in a line: Antimicrobial testing. In kind it is cell-based. Particulars: for MIC: Enterococcus.
Series [3] concerns S. pneumonia ATCC 49619. Briefly: Antimicrobial testing. Format: cell-based.
Series [4] deals with B. anthracis 34f2. Format: cell-based. Particulars: comparable to commercial antibiotic erythromycin.
The target of series [5] is TamI WT and mutants. The experiment in a line: Substrate-induced heme spin shift binding, several TamI P450s.
Series [6] has as its system TamI WT. Briefly: Total turnover number, TamI WT. The note with it: compound as substrate.
For series [7], the target named is TamI WT. The experiment in a line: Substrate-induced heme spin shift binding, TamI WT. Particulars: TamI WT (parent enzyme).
In series [8] the test system is E. coli TolC. In kind it is cell-based.
For series [9], the system named is TamI biocatalysts. Briefly: In vitro analytical enzymatic reactions with TamI biocatalysts. In kind it is biochemical, Streptomyces sp. 307-9. Particulars: compound as substrate.
Series [10] concerns the target TamL enzyme (Streptomyces sp. 307-9, UniProt D3Y1I2). Briefly: Isothermal titration calorimetry with TamL. (In ITC the heat of successive injections is recorded.)
The subject of series [11] is CC1=CC[C@H]2O[C@]1(C)O[C@H]([C@H](C)/C=C(C)/C=C/C(O)=C1/C(=O)CNC1=O)[C@H]2C. The experiment in a line: purified protein, by the assay type.
Substrate in series [12]: CC1=CC(=O)[C@H]2O[C@]1(C)O[C@H]([C@H](C)/C=C(C)/C=C/C(O)=C1/C(=O)CNC1=O)[C@H]2C
Briefly: purified protein, by the assay type. Particulars: other: compound as substrate; P450 TamI WT.

Substrate in series [13]: CC(/C=C/C(O)=C1/C(=O)CNC1=O)=C\[C@@H](C)[C@H]1O[C@@]2(C)O[C@H](C(=O)[C@@H]3O[C@@]32C)[C@@H]1C
Briefly: purified protein, by the assay type. The note with it: other: compound as substrate; P450 TamI WT.

Substrate in series [14]: CC(C=CC(O)=C1C(=O)CNC1=O)=CC(C)C1OC2(C)OC(C(O)C=C2C)C1C
Briefly: purified protein, by the assay type. The note with it: other: compound as substrate; P450 TamI WT.

In brackets after ≈: the same amount, converted by molar mass. Several values for one entry are separate records, joined by “and”; a condition that tells them apart may be missing. Equal values may be shown once.

In general, MIC refers to the smallest concentration in the dilution series that meets the test's criterion for growth inhibition. A high value points to a less susceptible organism. Usually Kd stands for the constant that tells how readily two partners part at equilibrium. For `CC1=CC(=O)[C@H]2O[C@]1(C)O[C@H]([C@H](C)/C=C(C)/C=C/C(O)=C1/C(=O)CNC1=O)[C@H]2C` [compound 3, tirandamycin D], the “TTN (mol substrate consumed/mol P450)” value in series [1] was 313–340. For the same molecule, the MIC in [2] is above 100 µM. In addition, in [3], the MIC was 12.5 µM (≈ 5.02 µg/mL) and the “activity against S. pneumonia ATCC 49619 (in words)” value is given as “enhanced activity”. Further, the “activity against B. anthracis 34f2 (in words)” value in [4] is listed as “strong activity”. Besides, the Kd in series [5] (heme spin shift, range over WT and all variants tested) was 6.89 to 8.32 µM.
For `CC[C@H]1OC(=O)[C@H](C)[C@@H](O[C@H]2C[C@@](C)(OC)[C@@H](O)[C@H](C)O2)[C@H](C)[C@@H](O[C@@H]2O[C@H](C)C[C@H](N(C)C)[C@H]2O)[C@](C)(O)C[C@@H](C)C(=O)[C@H](C)[C@@H](O)[C@]1(C)O` [erythromycin, reference compound], the MIC in series [2] turned out to be 3.13 µM (≈ 2.3 µg/mL); in series [3] it was 0.195 µM (≈ 0.143 µg/mL).
Turning to `CC(/C=C/C(O)=C1/C(=O)CNC1=O)=C\[C@@H](C)[C@H]1O[C@@]2(C)O[C@H](C(=O)[C@@H]3O[C@@]32C)[C@@H]1C` [compound 4, Tirandamycin A], in [2], the “activity against VRE (in words)” value is on record as “strongest activity” and inhibition of growth (MIC) required 6.25 µM (≈ 2.61 µg/mL). In [3], this molecule returned an MIC of 25 µM (≈ 10.4 µg/mL). For the same molecule, the “TTN (mol substrate consumed/mol P450)” value in series [6] was 143. Also, the equilibrium dissociation constant (Kd) entry in [7] is “no shift observed”.
`O=C(O)c1cn(C2CC2)c2cc(N3CCNCC3)c(F)cc2c1=O` [ciprofloxacin, reference compound]: the MIC was above 100 µM in series [2] and 1.56 µM (≈ 0.517 µg/mL) in [3].
On the same counts, the results for `CNC(=O)[C@@H](C)[C@H]1C(=O)/C(=C(O)/C=C/C(C)=C/[C@@H](C)[C@H]2O[C@@]3(C)O[C@H](C=C[C@@]34CO4)[C@@H]2C)C(=O)N1[C@@H]1CC[C@H](O)[C@H](C)O1` [streptolydigin, reference compound] are above 100 µM and above 100 µM.
Turning to `CC1=CC[C@H]2O[C@]1(C)O[C@H]([C@H](C)/C=C(C)/C=C/C(O)=C1/C(=O)CNC1=O)[C@H]2C` [compound 1, tirandamycin C], in series [2], the MIC was 25 µM (≈ 9.69 µg/mL). Further, in series [3], 12.5 µM (≈ 4.84 µg/mL) was the least that counted as inhibitory (MIC) and the “activity against S. pneumonia ATCC 49619 (in words)” value was “enhanced activity”. For the same molecule, the “activity against E. coli TolC (in words)” value in series [8] is given as “relatively weak activity”. Besides, in [4], the “activity against B. anthracis 34f2 (in words)” value is “strong activity”.
Turning to tirandamycin O’ [compound 10], the “oxidative activity / product formation with TamI biocatalysts” value in series [9] is on record as “failed to yield products”.
Take `CC(C=CC(O)=C1C(=O)CNC1=O)=CC(C)C1OC2(C)OC(C(O)C=C2C)C1C` (stereo not drawn) [compound 2, tirandamycin E]: binding in [10] was characterised by a dissociation constant (Kd) of 2.26 µM. Moreover, the MIC in [2] and in series [3] was above 100 µM in each case. Moreover, in series [5] (the other P450s (than L101A_L295I) including the parent enzyme), the spin shift result is recorded as “no spin shift was observed”.
As usually defined, the Km is the concentration of substrate that gives half-maximal velocity. In general, kcat refers to the maximal rate divided by the concentration of active sites. As a reminder, the kcat/Km is the second-order rate constant that governs catalysis at low substrate concentration. Turning to P450 TamI WT (Streptomyces sp. 307-9), in series [11], the Km was found to be 16.0 ± 2.6 µM, the kcat stood at 0.497 ± 0.0317 s⁻¹ and the catalytic efficiency (kcat/Km) turned out to be 31200 M⁻¹ s⁻¹.

B1: P450 TamI WT (Streptomyces sp. 307-9) (protein)
chain: MPMLQDSVPLELDDAFMQDPHSVYARLNAEGSAHRVMMPPGVPVCGGLPVWLITGYEEVRSALADPRLSTDLNRTDRLFAQNEPDRNKRGAFSSALATHMLHSDPPDHTRLRKLVNKAFTSRAIEKLRPEIEQITGELLAALPDEDPVDLLDAFAFPLPIRVICLLLGVPLEEQENFKSWSKALVSGDSPAATAAASTAMIEYLGDLIERKRRTPTDDVLAALVSARDVDDRLTETELVSMAFLLFIGGHETTVNTLGNGTLHLMRNLDQWEALRQDRSLLPGAVEEFLRLESPLKHATFRCATEDLRIGDTAIPAGDFVLLALASANRDPERFGDPHTLDVRRPTGGHVAFGHGIHYCLGAPLARMEAQVAFGVLLDTFPAMRLAVDPEDMRWRTSTLIRGLHSLPVRLNRP
For B1, in series [12], the Km is 36.5 ± 7.1 µM, the kcat was determined as 0.113 ± 0.00833 s⁻¹ and the kcat/Km came to 3170 M⁻¹ s⁻¹. Further, in series [13], the Michaelis constant (Km) came to 8.2 ± 1.0 µM; the kcat amounted to 0.0006 ± 1.67e-05 s⁻¹; the kcat/Km is 67 M⁻¹ s⁻¹ and 73.3 M⁻¹ s⁻¹. Further, in [14], the Michaelis constant (Km) was 108.5 ± 25.9 µM, the kcat stood at 0.000667 ± 0.000167 s⁻¹ and the kcat/Km was 5 M⁻¹ s⁻¹.
